The experiment relates to CHP212 cells. Put plainly: Measurement of fluctuation in the amount of Aβ accumulation in cultured nerve cells. Format: cell-based. Conditions: cultured nerve cells (human neuroblastoma CHP212); Aβ in the medium by ELISA (Human/Rat Amyloid β1-42 kit) 48 hours after addition of test substance; 10^-12 M to 10^-6 M; versus DMSO control (100%), FIG. 1. The text has this:
FIG. 1 is a diagram showing results of measuring fluctuation caused by a test substance of the formula (a) in the amount of Aβ accumulation in cultured nerve cells (CHP212 cells).
In the diagram, each column represents, starting from the left, a result of measurement obtained in a well to which the test substance has been added so that its final concentration can be 10^−12M (10^−12 M), in a well to which the test substance has been added so that its final concentration can be 10^−11M (10^−11M), in a well to which the test substance has been added so that its final concentration can be 10^−10M (10^−10M), in a well to which the test substance A has been added so that its final concentration can be 10^−9M (10^−9M), in a well to which the test substance has been added so that its final concentration can be 10^−8M (10^−8M), in a well to which the test substance has been added so that its final concentration can be 10^−7M (10^−7M), and in a well to which the test substance has been added so that its final concentration can be 10^−6M (10^−6 M). The results are shown in % by setting a result obtained in a control well to which only a solvent (DMSO) has been added as 100%. […]
(In general: ELISA stands for enzyme-linked immunosorbent assay.)

On to `O=c1cc(C(F)(F)F)c2cc(N(CC(F)(F)F)CC(F)(F)F)ccc2[nH]1` [formula (a)], for which the “amount of Aβ accumulation” value is reported as “markedly decreased”.

Source of the values: patent US20100204216A1, “PHARMACEUTICAL COMPOSITION FOR […]-beta PROTEIN ACCUMULATION” (SUMMITOMO CHEMICAL COMPANY LIMITED, priority 2007, published 2010).
